Patent publication US12194042B2, “Uses” (INTRA-CELLULAR THERAPIES, INC., priority 2018, dated 2025)
“Also recorded” adds a separate entry of the source.

Key:
Assay type in all cases: in vivo, human
[1] = tested on: patients with mild to moderate Parkinson's Disease (PD); experiment: CISI-PD (Clinical Impression of Severity Index for PD) in the Phase 1/2 study; settings: versus placebo; FIG. 4
Protocol: (§1) A Phase 1/2 randomized, double-blind, placebo-controlled, multiple rising dose clinical study was carried out to evaluate Compound 1 (below) in patients with mild to moderate Parkinson's Disease (PD).
(§2) 40 patients with idiopathic PD are recruited for the study. Patients with mild to moderate PD (Hoehn and Yahr staging score of 1-3 assessed in the “On” state) maintained on stable PD therapy are randomly assigned to placebo or 5 cohorts of Compound 1 at 1 mg, 3 mg, 10 mg, 30 mg, and 90 mg administered orally once daily for 7 days. All patients participating in the study are maintained on their stable PD therapy (e.g., dopamine replacement therapies), some of which are taking more than one category of PD therapy. Of the 40 patients, there are 28 receiving carbidopa/L-dopa, 14 receiving a dopamine agonist, 5 receiving amantadine, and 3 receiving MAO inhibitors.

[2] = tested on: patients with mild to moderate Parkinson's Disease (PD); experiment: Hauser Patient Motor Diary in the Phase 1/2 study; settings: rated by subjects, oral once daily for 7 days
Protocol: as §1, §2
(§3) The efficacy of Compound 1 in improving motor and non-motor symptoms of PD is measured using multiple scales, providing input from both subjects and site raters. Motor performance was improved and motor complications were reduced in the “On” state by Compound 1 relative to placebo treatment as assessed by the Movement Disorder Society Unified Parkinson's Disease Rating Scale (MDS-UPDRS) (FIG. 1). […] (FIGS. 3-4).

[3] = Pharmacokinetic profile in the Phase 1/2 study
Protocol: (§4) The study is designed to evaluate the safety and tolerability of Compound 1 in patients who are maintained on stable PD therapy. Another objective is to evaluate the pharmacokinetic profile of Compound 1 and explore its potential utility to control motor fluctuations and to evaluate treatment of non-motor symptoms (e.g., daytime sleepiness, dysautonomia) associated with PD. Biomarkers of disease progression (i.e., inflammation) are assessed.
as §2
Plasma steady state is achieved in the first 48 hours and supports once-a-day dosing for future efficacy trials.

[4] = tested on: patients with mild to moderate Parkinson's Disease (PD); experiment: Unified Parkinson's Disease Rating Scale (MDS-UPDRS) in the Phase 1/2 study
Protocol: as §1, §2, §3

[5] = tested on: patients with mild to moderate Parkinson's Disease (PD); experiment: Unified Dyskinesia Rating Scale (UDysRS) in the Phase 1/2 study; settings: FIG. 2
Protocol: as §1, §2, §3

[6] = tested on: patients with mild to moderate Parkinson's Disease (PD); experiment: Phase 1/2 randomized, double-blind, placebo-controlled, multiple rising dose clinical study: safety and tolerability
Protocol: as §1, §4, §2

[7] = "On" state, relative to placebo, FIG. 1

time to plasma steady state ([3]; once daily oral dosing): ≤ 48 h
pharmacokinetics (dose linearity) ([3]; parent drug and metabolites, across 1 mg to 90 mg): linear pharmacokinetics
SMILES: CN1C(=O)c2c(nn(Cc3ccc(-c4cccc(F)n4)cc3)c2Nc2ccccc2)N2C1=N[C@@H]1CCC[C@@H]12 [Compound 1, (6aR,9aS)-5,6a,7,8,9,9a-hexahydro-5-methyl-3-(phenylamino)-2-((4-(6-fluoropyridin-2-yl)phenyl)methyl)-cyclopent[4,5]imidazo[1,2-a]pyrazolo[4,3-e]pyrimidin-4(2H)-one]
CISI-PD Motor Complications Score [1]: reductions; also recorded: decreased
total On time (Hauser Patient Motor Diary) [2]: increased
"On" time without dyskinesias (Hauser Patient Motor Diary) ([2]; versus placebo): increases on-time without causing dyskinesia; also recorded: increased
UPDRS scores at end of study (EOS) ([4]; 30 days after cessation of treatment, FIG. 1): Scores increase
motor complications (MDS-UPDRS) [4, 7]: reduced
motor performance (MDS-UPDRS) [4, 7]: improved
UPDRS scores ([4]; by day 7 of treatment, PD patients on stable PD therapy, FIG. 1): decrease scores
MDS-UPDRS total scale scores ([4]; oral once daily for 7 days): reduces scores
motor symptoms (UPDRS Part III; clinician ratings of the motor manifestations of PD) ([4]; oral once daily for 7 days, on stable PD therapy): reductions; also recorded: reduces scores
motor complications including dyskinesias (UPDRS Part IV subscale) ([4]; oral once daily for 7 days, Part IV data not shown): reductions; also recorded: reduces scores
dyskinesia symptoms / motor complications measured by UDysRS ([5]; oral once daily for 7 days): reductions; also recorded: reduces dyskinesia symptoms
Objective UDysRS Total Score ([5]; subjects with dyskinesia at baseline, after treatment): Improves
serious adverse events ([6]; 1 mg to 90 mg orally once daily for 7 days): No serious adverse events
induction or worsening of motor complications ([6]; PD patients receiving concomitant dopamine replacement therapies): did not induce or worsen motor complications
effects on vital signs, cardiovascular or laboratory parameters ([6]; compared to placebo): no clinically significant effects
tolerability ([6]; once-daily oral for 7 days, doses from 1 mg to 90 mg): generally well tolerated
safety profile ([6]; once-daily oral for 7 days, no titration, 1 mg to 90 mg): favorable safety profile
side effects of dopamine replacement therapies ([6]; patients on dopamine replacement therapies): reduces the side effects
